Source: ChEMBL document CHEMBL1130902, “Novel angucycline compound with both antigastrin- and gastric mucosal protective-activities” (1998)

Experiments:
Type in all cases: functional
Rattus norvegicus [1] = assay: Percentage dose required to prevent lesion formation in gastric mucosa of unanesthetized rats upon intraperitoneal administration of 10 mg/kg dose in the HCl/ethanol-induced lesion model; conditions: ip
Rattus norvegicus [2] = assay: Percentage dose required to prevent lesion formation in gastric mucosa of unanesthetized rats upon intraperitoneal administration of 3 mg/kg dose in the HCl/ethanol-induced lesion model; conditions: ip
Rattus norvegicus [3] = assay: Percent inhibition against pentagastrin-stimulated acid secretion upon intraperitoneal administration of 10 mg/kg dose to urethane anesthetized rats.; conditions: ip
Rattus norvegicus [4] = assay: Percentage dose required to prevent lesion formation in gastric mucosa of unanesthetized rats upon intraperitoneal administration 30 min prior to an oral dose of HCl/ethanol.
Rattus norvegicus [5] = assay: Percentage dose required to prevent lesion formation in gastric mucosa of unanesthetized rats upon intraperitoneal administration of 1 mg/kg dose in the HCl/ethanol-induced lesion model; conditions: ip
Rattus norvegicus [6] = assay: Dose required to prevent lesion formation in gastric mucosa of unanesthetized rats upon subcutaneous administration.

Work on `CO[C@@H]1C[C@H](O[C@@H]2C=C(C)C[C@@]3(O)[C@H](OC(C)=O)[C@H](O)C4=C(C(=O)c5ccc([C@H]6C[C@@H](O[C@H]7C[C@](C)(O)[C@H](O[C@H]8CC[C@H](NC(N)=O)[C@@H](C)O8)[C@@H](C)O7)[C@H](O)[C@@H](C)O6)c(O)c5C4=O)[C@@]23O)O[C@@H](C)[C@H]1O` [COMPOUND P371 A] yielded an inhibition in vivo at 10 mg/kg (Rattus norvegicus [1]) of 83.6%, an inhibition in vivo at 3 mg/kg (Rattus norvegicus [2]) of 81.6% and an inhibition in vivo at 10 mg/kg (Rattus norvegicus [3]) of 61%. The “% dose” value (Rattus norvegicus [4]) was 60% and the inhibition in vivo at 1 mg/kg (Rattus norvegicus [5]) was 52.6%.
`COc1ccc2c(c1)c(CC(=O)O)c(C)n2C(=O)c1ccc(Cl)cc1` [INDOMETHACIN] showed an inhibition in vivo at 10 mg/kg (Rattus norvegicus [1]) of 72.8%, an inhibition in vivo at 3 mg/kg (Rattus norvegicus [2]) of 64.9% and a Dose (Rattus norvegicus [6]) of 25 mg/kg. The inhibition in vivo at 1 mg/kg (Rattus norvegicus [5]) was 57%.
